Laboratory results published in patent publication US9067938B2, “Pyrazolopyridinone derivatives as LPA receptor antagonists” (Merck Patent GmbH, priority 2010, dated 2015).

Tests used:
P2Y10-Gα16 = molecular target: T1, P2Y10-Gα16 (Homo sapiens, UniProt O00398); settings: induction of Ca2+ transients via P2Y10-Gα16; cited from earlier work
T1 construct: "P2Y10-Gα16"; fused on or other part: The promiscuous G-protein alpha subunit G alpha 16 (GNA15) is fused to the receptor; By the printed name order it probably sits at the C-terminus; It is a coupling handle and not part of the key

LPA2 receptor = LPA2 receptor (Homo sapiens, UniProt Q9HBW0); assay: LPA2R-calciumflux assay; format: cell-based; settings: U2OS cells recombinant expressing LPA2R; LPA-induced intracellular calcium signal (FLIPR Tetra); 10 concentrations from 30 uM to 1 nM, 1% DMSO
Excerpt: Description of the LPA2R Assay
Cell Cultivation/Propagation
LPA2R-calciumflux Assay Protocol
The assay detects intra cellular calcium which is generated by cells upon activation of the LPA2 receptor by its ligand LPA. This transient calcium mobilisation can be monitored using a commercial calcium detection kit (e.g. from Molecular Devices). The main component of such a kit is a dye, which becomes fluorescent when calcium is present—a transient fluorescence signal after laddition of a ligand to a test well are the result. Readers like the FLIPR (from Molecular Devices) can be used to monitor such transient “Ca-flux” signals.
The signals are calculated according to peak maximum minus base line. Compounds which are antogonists of LPA lead to a decreased mobilisation of intracellular calcium and thus to a lower signal. The assay is performed in microplates (384 wells per plate).
The assay itself is run according to the following procedure: • 50 uL seed cells (10000 cells/well in DMEM buffer) • Incubate 24 h at 37° C., 10% CO2 • aspirate medium • 50 uL add calcium dye 1×HBSS/HEPES buffer • incubate 1 h at 37° C. (“loading”) • equilibrate 10 min at RT • 5 uL add compounds in HEPES buffer • shake 10 sec. @ 1000 rpm • incubate 15 min at RT • 20 uL add LPA (in the FLIPR Tetra) in KREBS-Puffer/BSA & measurement
The cells are seeded in DMEM buffer (DMEM, 10% FCS, 10 mM HEPES, 1% Pen/Strep).
Dye loading is done in HBSS/HEPES buffer (100 mL 10×HBSS+20 mL 1M HEPES+880 mL water, pH 7.4)
The LPA is added in Krebs/BSA buffer (120 mM NaCl, 5 mM KCl, 0.62 mM MgSO4, 1.8 mM CaCl2, 10 mM HEPES, 6 mM D(+)-Glucose, 0.2% BSA, pH 7.4).
The compounds are pre-diluted in HEPES buffer (20 mM, pH 7.4), whereby the final DMSO content in the assay is kept at 1%. The compounds are pre-diluted in order to generate dose response series on the microplates. The dose response series consist of 10 concentrations for each compound from 30 uM final to 1 nM final. From all compound wells the resulting signals are referred to control wells (located on each plate besides the compound wells) in terms of % activity.
[formula] From these % activity values—along with the corresponding compound concentrations—IC50 values are fitted for each compound using standard fitting programs such as Graphpad Prism. Here the method “log(inhibitor) vs. response—Variable slope” is used. Reader Settings (FLIPR Tetra) • ExcWLength:470—495 • Em.Wlength: 515—575 • Gain: 50 • Exp. Time: 0,4 • Exc.Intensity: 80 • READ with TF • First read interval: 1,00 s • Number of first reads: 240 • Reads before dispense: 10 • Second read interval: 1,00 s • Number of second reads: 0 • Save Images No

LPA2 receptor, sequence (Q9HBW0 whole entry): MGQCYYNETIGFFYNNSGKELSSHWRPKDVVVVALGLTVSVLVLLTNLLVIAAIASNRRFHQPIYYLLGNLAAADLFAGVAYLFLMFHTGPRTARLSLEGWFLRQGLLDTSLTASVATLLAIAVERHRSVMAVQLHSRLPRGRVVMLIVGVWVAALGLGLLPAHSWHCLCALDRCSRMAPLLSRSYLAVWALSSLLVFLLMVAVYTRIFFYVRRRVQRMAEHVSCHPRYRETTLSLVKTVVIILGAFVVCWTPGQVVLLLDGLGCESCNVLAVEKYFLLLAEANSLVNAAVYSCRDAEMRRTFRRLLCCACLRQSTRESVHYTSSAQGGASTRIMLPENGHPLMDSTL
T1 sequence (O00398 whole entry, the tested form may be a part): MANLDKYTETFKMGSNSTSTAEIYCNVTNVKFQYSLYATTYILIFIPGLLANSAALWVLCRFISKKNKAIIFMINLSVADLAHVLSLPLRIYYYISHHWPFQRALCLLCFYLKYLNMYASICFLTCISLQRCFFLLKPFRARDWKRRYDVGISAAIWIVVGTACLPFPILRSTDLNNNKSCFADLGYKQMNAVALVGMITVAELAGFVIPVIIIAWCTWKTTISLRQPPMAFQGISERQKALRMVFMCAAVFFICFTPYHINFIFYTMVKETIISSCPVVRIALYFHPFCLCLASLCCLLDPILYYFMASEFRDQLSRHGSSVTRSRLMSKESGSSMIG

| IC50 (LPA2 receptor) [nM] | Compound | EC50 (P2Y10-Gα16) [nM] |
| --- | --- | --- |
| > 10000 | CCN1C(=O)CC(O)(C(F)(F)F)c2c(-c3ccccc3)n[nH]c21 (centres unmarked) [Compound 34, 7-Ethyl-4-hydroxy-3-phenyl-4-trifluoromethyl-1,4,5,7-tetrahydro-pyrazolo[3,4-b]pyridin-6-one] | – |
| > 10000 | O=C1CC(O)(c2cc(C(F)(F)F)cc(C(F)(F)F)c2)c2c(-c3ccccc3)n[nH]c2N1 (centres unmarked) [Compound 35, 4-(3,5-Bis-trifluoromethyl-phenyl)-4-hydroxy-3-phenyl-1,4,5,7-tetrahydro-pyrazolo[3,4-b]pyridin-6-one] | – |

Continued, compound first:

| Compound | IC50 (LPA2 receptor) [nM] | EC50 (P2Y10-Gα16) [nM] |
| --- | --- | --- |
| Lysophosphatidic acid [LPA] | – | 130 |
| CCCCCCCCCCCCC/C=C/[C@@H](O)[C@@H](N)COP(=O)(O)O [Compound S1P, sphingosine 1-phosphate] | – | 53 |
| O=C1CC(O)(C(F)(F)F)c2c(-c3ccncc3)n[nH]c2N1 (centres unmarked) [Compound 22, 4-Hydroxy-3-pyridin-4-yl-4-trifluoromethyl-1,4,5,7-tetrahydro-pyrazolo[3,4-b]pyridin-6-one] | < 1000 | – |
